Test results from patent US6239130A, “Phosphodiesterase 4-inhibiting diazepinoindolones” (Warner-Lambert Company, priority 1997, dated 2001).
Structures can show the parent of a compound that is named as a salt. Where two headings read alike, the source gives them in different places.

System: PDE4 enzyme of human origin
Experiment: PDE4-inhibiting activity on an enzyme preparation obtained from the U937 cell line
Assay type: biochemical
Description: In the case of the PDE4 enzymes, this value is compared with that of rolipram, a specific PDE4 inhibitor. […] Measurement of the enzyme activity of the different types of PDE, and especially of the PDE4 enzymes, is then carried out according to a method adapted from W. J. Thompson, ibidem.

SMILES	IC50 [nM]	IC50 (listed as 7B) [nM]
Cc1cc2c3c(c1)C(c1ccccc1)=NC(n1c(C)nc4cc(C(=O)O)ccc4c1=O)C(=O)N3CC2 (racemic) [Example 7, 2-methyl-3-(9-methyl-4-oxo-1-phenyl-3,4,6,7-tetrahydro-[1,4]diazepino[6,7,1-hi]indol-3-yl)-4-oxo-3,4-dihydroquinazoline-7-carboxylic acid]	52	57
Cc1cc2c3c(c1)C(c1ccccc1)=N[C@H](n1c(C)nc4cc(C(=O)O)ccc4c1=O)C(=O)N3CC2 [7D(R), (3R)-2-methyl-3-(9-methyl-4-oxo-1-phenyl-3,4,6,7-tetrahydro[1,4]diazepino[6,7,1-hi]indol-3-yl)-4-oxo-3,4-dihydroquinazoline-7-carboxylic acid]	982	–
Cc1cc2c3c(c1)C(c1ccccc1)=N[C@@H](n1c(C)nc4cc(C(=O)O)ccc4c1=O)C(=O)N3CC2 [7E(S), (3S)-2-methyl-3-(9-methyl-4-oxo-1-phenyl-3,4,6,7-tetrahydro[1,4]diazepino[6,7,1-hi]indol-3-yl)-4-oxo-3,4-dihydroquinazoline-7-carboxylic acid]	35	–
Cc1nc2ccccc2c(=O)n1[C@@H]1N=C(c2ccccc2)c2cccc3c2N(CC3)C1=O [Example 1, (3S)-3-(2-methyl-4-oxo-4H-quinazolin-3-yl)-1-phenyl-6,7-dihydro-3H[1,4]diazepino[6,7,1-hi]indol-4-one]	448	–
Cc1cc2c3c(c1)C(c1ccccc1)=NC(n1c(C)nc4ccccc4c1=O)C(=O)N3CC2 (stereo not shown) [Example 2, 9-methyl-3-(2-methyl-4-oxo-4H-quinazolin-3-yl)-1-phenyl-6,7-dihydro-3H-[1,4]diazepino [6,7,1-hi] indol-4-one]	146	–
COc1cc2c3c(c1)C(c1ccccc1)=NC(n1c(C)nc4ccccc4c1=O)C(=O)N3CC2 (stereo not shown) [Example 2A, 9-methoxy-3-(2-methyl-4-oxo-4H-quinazolin-3-yl)-1-phenyl-6,7-dihydro-3H-[1,4]diazepino [6,7,1-hi] indol-4-one]	183	–
COC(=O)c1ccc2c(=O)n(C3N=C(c4ccccc4)c4cc(OC)cc5c4N(CC5)C3=O)c(C)nc2c1 (stereo not shown) [Example 2B, Methyl 2-methyl-3-(9-methoxy-4-oxo-1-phenyl-3,4,6,7-tetrahydro[1,4]diazepino[6,7,1-hi]indol-3-yl)-4-oxo-3,4-dihydroquinazoline-7-carboxylate]	67	–
COc1cc2c3c(c1)C(c1ccccc1)=NC(n1c(C)nc4cc(C(=O)O)ccc4c1=O)C(=O)N3CC2 (stereo not shown) [Example 2C, 2-methyl-3-(9-methoxy-4-oxo-1-phenyl-3,4,6,7-tetrahydro[1,4]diazepino[6,7,1-hi]indol-3-yl)-4-oxo-3,4-dihydroquinazoline-7-carboxylic acid]	108	–
Cc1cc2c3c(c1)C(c1ccccc1)=N[C@@H](n1c(C)nc4cccc(C)c4c1=O)C(=O)N3CC2 [Example 3, (3S)-9-methyl-3-(2,5-dimethyl-4-oxo-4H-quinazolin-3-yl)-1-ph enyl-6,7-dihydro-3H-[1,4]-diazepino[6,7,1-hi]indol-4-one]	141	–
Cc1cc2c3c(c1)C(c1ccccc1)=N[C@@H](n1c(C)nc4ccc(C)cc4c1=O)C(=O)N3CC2 [Example 4, (3S)-9-methyl-3-(2,6-dimethyl-4-oxo-4H-quinazolin-3-yl)-1-phenyl-6,7-dihydro-3H-[1,4]diazepino[6,7,1-hi]indol-4-one]	553	–
Cc1cc2c3c(c1)C(c1ccccc1)=N[C@@H](n1c(C)nc4c(C)cccc4c1=O)C(=O)N3CC2 [Example 5, (3S)-9-methyl-3-(2,8-dimethyl-4-oxo-4H-quinazolin-3-yl)-1-ph enyl-6,7-dihydro-3H-[1,4]diazepino[6,7,1-hi]indol-4-one]	832	–
COc1cccc2nc(C)n(C3N=C(c4ccccc4)c4cc(C)cc5c4N(CC5)C3=O)c(=O)c12 (stereo not shown) [Example 6, 3-(5-methoxy-2-methyl-4-oxo-4H-quinazolin-3-yl)-9-methyl-1-phenyl-6,7-dihydro-3H-[1,4]diazepino[6,7,1-hi]indol-4-one]	3020	–
COc1ccc2c(=O)n(C3N=C(c4ccccc4)c4cc(C)cc5c4N(CC5)C3=O)c(C)nc2c1 (stereo not shown) [Example 6A, 3-(7-methoxy-2-methyl-4-oxo-4H-quinazolin-3-yl)-9-methyl-1-phenyl-6,7-dihydro-3H-[1,4]-diazepino[6,7,1-hi]indol-4-one]	133	–
COc1ccc2nc(C)n(C3N=C(c4ccccc4)c4cc(C)cc5c4N(CC5)C3=O)c(=O)c2c1 (stereo not shown) [Example 6B, 3-(6-methoxy-2-methyl-4-oxo-4H-quinazolin-3-yl)-9-methyl-1-phenyl-6,7-dihydro-3H-[1,4]-diazepino[6,7,1-hi]indol-4-one]	1420	–
Cc1cc2c3c(c1)C(c1ccccc1)=NC(n1c(C)nc4ccc(Br)cc4c1=O)C(=O)N3CC2 (stereo not shown) [Example 6C, 3-(6-bromo-2-methyl-4-oxo-4H-quinazolin-3-yl)-9-methyl-1-phenyl-6,7-dihydro-3H-[1,4]diazepino-[6,7,1-hi]indol-4-one]	838	–
Cc1cc2c3c(c1)C(c1ccccc1)=NC(n1c(C)nc4cccc(CO)c4c1=O)C(=O)N3CC2 (stereo not shown) [Example 6D, 3-(5-hydroxymethyl-2-methyl-4-oxo-4H-quinazolin-3-yl)-9-methyl-1-phenyl-6,7-dibydro-3H-[1,4]-diazepino[6,7,1-hi]indol-4-one]	372	–
Cc1cc2c3c(c1)C(c1ccccc1)=NC(n1c(C)nc4cccc(C(=O)OC(C)(C)C)c4c1=O)C(=O)N3CC2 (stereo not shown) [Example 6E, tert-Butyl 2-methyl-3-(9-methyl-4-oxo-1-phenyl-3,4,6,7-tetrahydro-[1,4]diazepino[6,7,1-hi]indol-3-yl)-4-oxo-3,4-dihydroquinazoline-5-carboxylate]	> 100000	–
Cc1cc2c3c(c1)C(c1ccccc1)=NC(n1c(C)nc4cccc(C(=O)O)c4c1=O)C(=O)N3CC2 (stereo not shown) [Example 6F, 2-methyl-3-(9-methyl-4-oxo-1-phenyl-3,4,6,7-tetrahydro[1,4]diazepino[6,7,1-hi]indol-3-yl)-4-oxo-3,4-dihydroquinazoline-5-carboxylic acid]	> 100000	–
COC(=O)c1ccc2c(=O)n(C3N=C(c4ccccc4)c4cc(C)cc5c4N(CC5)C3=O)c(C)nc2c1 (stereo not shown) [Example 7A, Methyl 2-methyl-3-(9-methyl-4-oxo-1-phenyl-3,4,6,7-tetrahydro-[1,4]diazepino[6,7,1-hi]indol-3-yl)-4-oxo-3,4-dihydroquinazoline-7-carboxylate]	157	–
Cc1cc2c3c(c1)C(c1ccccc1)=NC(n1c(C)nc4cc(C(=O)O)ccc4c1=O)C(=O)N3CC2 [Example 7C, Salt of 2-methyl-3-(9-methyl-4-oxo-1-phenyl-3,4,6,7-tetrahydro[1,4]diazepino[6,7,1-hi]indol-3-yl)-4-oxo-3,4-dihydroquin azoline-7-carboxylic acid with D-glucamine]	66	–
Cc1cc2c3c(c1)C(c1ccccc1)=NC(n1c(C)nc4cc(C(N)=O)ccc4c1=O)C(=O)N3CC2 (stereo not shown) [Example 8, 2-methyl-3-(9-methyl-4-oxo-1-phenyl-3,4,6,7-tetrahydro-[1,4]diazepino[6,7,1-hi]indol-3-yl)-4-oxo-3,4-dihydroquinazoline-7-carboxamide]	50	–
Cc1cc2c3c(c1)C(c1ccccc1)=NC(n1c(C)nc4cc(-c5nnn[nH]5)ccc4c1=O)C(=O)N3CC2 (stereo not shown) [Example 8B]	28	–
CNC(=O)c1ccc2c(=O)n(C3N=C(c4ccccc4)c4cc(C)cc5c4N(CC5)C3=O)c(C)nc2c1 (stereo not shown) [Example 9, 2-methyl-3-(9-methyl-4-oxo-1-phenyl-3,4,6,7-tetrahydro-[1,4]diazepino[6,7,1-hi]indol-3-yl)-4-oxo-3,4-dihydroquinazoline-7-(N-methylcarboxamide)]	63	–
Cc1cc2c3c(c1)C(c1ccccc1)=NC(n1c(C)nc4cc(C(=O)N(C)C)ccc4c1=O)C(=O)N3CC2 (stereo not shown) [Example 9A, 2-methyl-3-(9-methyl-4-oxo-1-phenyl-3,4,6,7-tetrahydro[1,4]diazepino[6,7,1-hi]indol-3-yl)-4-oxo-3,4dihydroquinazoline-7-N-dimethylearboxamide]	122	–
Cc1cc2c3c(c1)C(c1ccccc1)=NC(n1c(C)nc4cc(C(=O)NCCN5CCOCC5)ccc4c1=O)C(=O)N3CC2 (stereo not shown) [Example 9B, 2-methyl-3-(9-methyl-4-oxo-1-phenyl-3,4,6,7-tetrahydro[1,4]diazepino[6,7,1-hi]indol-3-yl) 4-oxo-3,4-dihydroquinazoline-7-carboxylic acid (2-morpholin-4-yl-ethyl)amide]	95	–
Cc1cc2c3c(c1)C(c1ccccc1)=NC(n1c(C)nc4cc(C(=O)NCCCN5CCOCC5)ccc4c1=O)C(=O)N3CC2 (stereo not shown) [Example 9C]	69	–
Cc1cc2c3c(c1)C(c1ccccc1)=NC(n1c(C)nc4cc(C(=O)NCCN)ccc4c1=O)C(=O)N3CC2 (stereo not shown) [Example 9D, 2-methyl-3-(9-methyl-4-oxo-1-phenyl-3,4,6,7-tetrahydro[1,4]diazepino[6,7,1-hi]indol-3-yl)-4-oxo-3,4-dihydroquinazoline-7-(2-amino)ethylcarboxamide]	119	–
Cc1cc2c3c(c1)C(c1ccccc1)=NC(n1c(C)nc4cc(C(=O)N5CCN(CCO)CC5)ccc4c1=O)C(=O)N3CC2 (stereo not shown) [Example 9F, 3-{7-[4-(2-hydroxyethyl)piperazine-1-carbonyl]-2-methyl-4-oxo-4H-quinazolin-3-yl}-9-methyl-1-phenyl-6,7-dihydro-3H-[1,4]diazepino[6,7,1-hi]indol-4-one]	192	–
Cc1cc2c3c(c1)C(c1ccccc1)=NC(n1c(C)nc4cc(C(=O)N5CCN(CCO)CC5)ccc4c1=O)C(=O)N3CC2 (stereo not shown) [Example 9G]	137	–
COC(=O)[C@H](CCCCN)NC(=O)c1ccc2c(=O)n(C3N=C(c4ccccc4)c4cc(C)cc5c4N(CC5)C3=O)c(C)nc2c1 (stereo partly drawn) [Example 9I, Methyl (2S)-6-amino-2-{[2-methyl-3-(9-methyl-4-oxo-1-phenyl-3,4,6,7-tetrahydro-[1,4]diazepino[6,7,1-hi]indol-3-yl)-4-oxo-3,4-dihydroquinazolin-7-carbonyl]amino}hexanoate]	119	–
